# Reference: article PMC6934184, “Selective DNA-PKcs inhibition extends the therapeutic index of localized radiotherapy and chemotherapy” (The Journal of Clinical Investigation, 2019)
# Target: T1, CDC42 BPB (MRCKB) (Homo sapiens, UniProt Q9Y5S2)
# T1 construct: purchased Thermo Fisher Scientific (Life Technologies) SelectScreen
# Assay: SelectScreen Z'LYTE
# Type: biochemical
# In short: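 SelectScreen broad panel; activity (Z'LYTE, Adapta) plus binding formats. ATP: Km app for CSF1R Z'LYTE; 10 for CAMK1 Adapta. Readout = % per kinase.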
# T1 sequence (Q9Y5S2 whole entry): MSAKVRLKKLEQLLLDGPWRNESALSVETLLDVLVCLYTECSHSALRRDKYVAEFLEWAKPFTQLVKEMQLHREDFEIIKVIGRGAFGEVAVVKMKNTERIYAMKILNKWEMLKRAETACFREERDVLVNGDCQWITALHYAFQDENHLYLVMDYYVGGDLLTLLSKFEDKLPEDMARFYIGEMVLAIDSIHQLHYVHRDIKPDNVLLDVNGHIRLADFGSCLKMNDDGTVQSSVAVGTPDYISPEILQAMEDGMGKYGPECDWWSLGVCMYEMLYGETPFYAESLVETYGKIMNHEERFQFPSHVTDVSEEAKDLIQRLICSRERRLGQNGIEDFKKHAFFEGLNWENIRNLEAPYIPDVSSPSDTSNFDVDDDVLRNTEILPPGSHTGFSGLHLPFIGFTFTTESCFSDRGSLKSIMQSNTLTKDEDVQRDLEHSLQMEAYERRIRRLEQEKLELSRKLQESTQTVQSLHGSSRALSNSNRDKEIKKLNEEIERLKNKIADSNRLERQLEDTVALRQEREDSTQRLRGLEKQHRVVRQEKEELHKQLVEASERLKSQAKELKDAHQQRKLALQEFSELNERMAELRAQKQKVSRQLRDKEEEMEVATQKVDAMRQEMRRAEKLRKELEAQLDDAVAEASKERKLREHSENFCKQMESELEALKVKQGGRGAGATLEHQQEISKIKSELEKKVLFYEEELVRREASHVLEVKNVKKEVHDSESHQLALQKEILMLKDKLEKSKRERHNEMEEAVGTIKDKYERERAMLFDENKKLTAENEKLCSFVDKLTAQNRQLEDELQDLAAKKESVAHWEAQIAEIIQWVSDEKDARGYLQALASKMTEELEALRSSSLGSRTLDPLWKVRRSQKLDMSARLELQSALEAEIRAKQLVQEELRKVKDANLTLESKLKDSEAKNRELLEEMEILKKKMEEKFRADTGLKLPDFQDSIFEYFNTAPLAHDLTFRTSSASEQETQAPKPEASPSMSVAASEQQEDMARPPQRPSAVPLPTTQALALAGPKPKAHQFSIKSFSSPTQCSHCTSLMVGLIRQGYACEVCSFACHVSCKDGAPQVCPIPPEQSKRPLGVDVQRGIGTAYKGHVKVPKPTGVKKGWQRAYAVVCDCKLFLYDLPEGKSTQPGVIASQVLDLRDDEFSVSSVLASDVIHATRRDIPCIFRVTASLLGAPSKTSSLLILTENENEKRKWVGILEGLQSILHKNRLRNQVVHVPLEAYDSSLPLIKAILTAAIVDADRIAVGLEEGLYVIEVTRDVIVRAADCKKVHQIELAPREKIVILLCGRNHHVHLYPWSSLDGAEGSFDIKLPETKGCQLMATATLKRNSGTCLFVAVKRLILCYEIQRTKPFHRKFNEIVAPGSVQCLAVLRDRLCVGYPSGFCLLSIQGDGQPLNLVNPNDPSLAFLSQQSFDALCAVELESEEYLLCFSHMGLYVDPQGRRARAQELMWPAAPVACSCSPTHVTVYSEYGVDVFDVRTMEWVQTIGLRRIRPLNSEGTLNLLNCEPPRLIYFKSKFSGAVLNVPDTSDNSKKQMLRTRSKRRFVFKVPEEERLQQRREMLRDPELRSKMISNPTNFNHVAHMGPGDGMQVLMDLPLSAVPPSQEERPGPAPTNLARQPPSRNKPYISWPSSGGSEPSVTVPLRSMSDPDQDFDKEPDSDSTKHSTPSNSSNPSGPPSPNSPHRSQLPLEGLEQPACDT
smiles,measurement,value
CN(C(=O)CN1CCOCC1)c1ccc2sc3c(-c4cccc5c(=O)cc(N6CC7CCC(C6)O7)oc45)cccc3c2c1 [NU5455],inhibition at 1 µM,-2.5%
